# Measured values: ChEMBL document CHEMBL1201862, “PubChem BioAssay data set” (2004)
# Activity calls are given as the source filed them.
# Assays:
# [1] = biological target: Mu-type opioid receptor (Homo sapiens, UniProt P35372); format: functional, cell-based;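 note: U2OS cells with beta-arrestin recruitment to OPRM1 by beta-gal complementation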
# [2] = biological target: 5-hydroxytryptamine receptor 2A (Mus musculus, UniProt P35363); format: functional, cell-based;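 note: CHO-K1 cells with tagged receptor and beta-arrestin; agonist potency measured as compound-induced activation of the receptor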
# [3] = test system: HEK293; experiment: optical interference in Abeta FP readout, dose response, artefact control for IDE activator project, biochemical, fluorescence polarization (AID 588442); format: functional, cell-based; settings: Homo sapiens
# [4] = HEK293T cell cytotoxicity, dose response, cytotoxicity control for HIV Vif inhibitor project, cherry-picks (AID 652208); format: functional, cell-based
# [5] = biological target: T1, Insulin-degrading enzyme (Homo sapiens, UniProt P14735); experiment: activators of endogenous IDE in HEK cells, dose response, cell-based, fluorescence polarization (AID 588439); format: functional
# T1 sequence (P14735 whole entry): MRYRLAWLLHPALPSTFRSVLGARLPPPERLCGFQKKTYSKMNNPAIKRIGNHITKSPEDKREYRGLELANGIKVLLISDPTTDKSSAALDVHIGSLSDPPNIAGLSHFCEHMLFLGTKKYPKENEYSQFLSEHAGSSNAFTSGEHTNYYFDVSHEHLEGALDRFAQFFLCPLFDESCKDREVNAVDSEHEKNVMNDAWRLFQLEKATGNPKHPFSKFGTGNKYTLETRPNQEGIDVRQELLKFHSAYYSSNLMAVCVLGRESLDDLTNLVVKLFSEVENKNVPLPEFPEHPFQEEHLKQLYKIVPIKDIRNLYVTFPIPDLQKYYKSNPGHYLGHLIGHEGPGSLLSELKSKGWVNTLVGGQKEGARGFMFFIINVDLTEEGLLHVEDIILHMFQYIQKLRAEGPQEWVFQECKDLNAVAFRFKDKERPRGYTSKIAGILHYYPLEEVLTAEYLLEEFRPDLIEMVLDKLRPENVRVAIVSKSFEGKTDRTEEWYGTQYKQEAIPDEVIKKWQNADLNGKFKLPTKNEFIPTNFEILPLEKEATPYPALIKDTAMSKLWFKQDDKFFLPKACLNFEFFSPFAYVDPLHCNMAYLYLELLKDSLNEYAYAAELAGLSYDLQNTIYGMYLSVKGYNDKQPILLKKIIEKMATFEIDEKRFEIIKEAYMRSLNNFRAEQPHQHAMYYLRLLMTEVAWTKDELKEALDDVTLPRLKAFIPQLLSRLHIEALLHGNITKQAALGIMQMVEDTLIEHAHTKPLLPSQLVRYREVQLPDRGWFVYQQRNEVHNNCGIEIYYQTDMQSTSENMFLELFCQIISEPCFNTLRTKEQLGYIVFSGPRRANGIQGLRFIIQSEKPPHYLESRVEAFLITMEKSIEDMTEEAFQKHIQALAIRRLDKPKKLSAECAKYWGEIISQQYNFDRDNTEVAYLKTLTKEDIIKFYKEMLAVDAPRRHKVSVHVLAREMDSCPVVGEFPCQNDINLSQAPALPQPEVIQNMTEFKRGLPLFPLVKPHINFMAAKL
# [6] = test system: A-375; experiment: MITF: Counter assay: A375 proliferation Measured in Cell-Based System Using Plate Reader - 2084-03_Inhibitor_Dose_DryPowder_Activity. [Related pubchem assays (depositor defined):AID488944]; format: functional; settings: Homo sapiens
# [7] = biological target: T1, Insulin-degrading enzyme; experiment: activators of recombinant IDE enzyme, dose response, counter-screen for IDE activator project, biochemical, fluorescence polarization (AID 588681)
# [8] = test system: HEK293; experiment: HEK cell cytotoxicity by LDH release, dose response, cytotoxicity control for IDE activator project, fluorescence, HEK cells (AID 588440); format: functional, cell-based; settings: Homo sapiens;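 note: cytotoxicity by LDH release measuring loss of membrane integrity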
# [9] = biological target: Melanocortin receptor 4 (Homo sapiens, UniProt P32245); format: functional, cell-based;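 note: Cell-based assay with luminescence read-out, confirmatory dose-response testing for agonist activity of biased ligands at MC4R; human U2OS cells with tagged receptor and beta-arrestin; potency of agonists that increase receptor coupling to beta-arrestin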
# [10] = biological target: T2, Microphthalmia-associated transcription factor (Homo sapiens, UniProt O75030); experiment: TRPM1 promoter luciferase signal decrease, dose response, MITF inhibitor project, cell-based, SK-MEL-5, cherry-picked, set 3 (AID 493073); format: functional
# T2 sequence (O75030 whole entry): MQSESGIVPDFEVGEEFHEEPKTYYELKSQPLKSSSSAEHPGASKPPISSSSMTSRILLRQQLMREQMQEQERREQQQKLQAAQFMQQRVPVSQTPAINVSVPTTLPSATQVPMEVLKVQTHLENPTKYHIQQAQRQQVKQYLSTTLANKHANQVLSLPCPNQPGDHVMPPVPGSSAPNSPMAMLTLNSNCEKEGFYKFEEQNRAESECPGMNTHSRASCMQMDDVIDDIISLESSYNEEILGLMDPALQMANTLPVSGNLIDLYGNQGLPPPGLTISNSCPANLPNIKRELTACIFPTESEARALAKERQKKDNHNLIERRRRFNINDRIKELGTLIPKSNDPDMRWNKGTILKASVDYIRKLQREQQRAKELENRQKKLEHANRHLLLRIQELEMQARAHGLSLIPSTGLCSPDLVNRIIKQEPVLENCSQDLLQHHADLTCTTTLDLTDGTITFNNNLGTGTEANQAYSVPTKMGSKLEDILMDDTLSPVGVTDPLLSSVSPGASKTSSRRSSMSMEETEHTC
# [11] = reduction of Shn3 3'UTR firefly luciferase signal, dose response, Schnurri-3 inhibitor project, cell-based, Clone20 osteoblasts, cherry-pick, set 2 (AID 720490); format: functional;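 note: actives lower the luminescence signal as inhibitors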
# [12] = Shn3 3'UTR reporter inhibitors, dose response, cell-based, Clone20 osteoblasts, firefly luciferase, cherry-picked (AID 624132); format: functional;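 note: firefly luciferase luminescence from reporter carrying the Shn3 3'UTR in osteoblasts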
# [13] = inhibitors of control Renilla luciferase reporter, dose response, counter-screen for Shn3 3'UTR targeting project, Clone20-Shn3RL cells, dual-Glo, cherry-pick, set 2 (AID 720724); format: functional, cell-based; settings: Dual-Go Shn3RL
# [14] = biological target: T3, Leucine aminopeptidase (Plasmodium falciparum 3D7, UniProt Q8IL11); experiment: P. falciparum M17LAP inhibitors, primary screen, biochemical, fluorogenic H-Leu-NHMec substrate, 1536-well (AID 1619); format: functional
# T3 sequence (Q8IL11 whole entry): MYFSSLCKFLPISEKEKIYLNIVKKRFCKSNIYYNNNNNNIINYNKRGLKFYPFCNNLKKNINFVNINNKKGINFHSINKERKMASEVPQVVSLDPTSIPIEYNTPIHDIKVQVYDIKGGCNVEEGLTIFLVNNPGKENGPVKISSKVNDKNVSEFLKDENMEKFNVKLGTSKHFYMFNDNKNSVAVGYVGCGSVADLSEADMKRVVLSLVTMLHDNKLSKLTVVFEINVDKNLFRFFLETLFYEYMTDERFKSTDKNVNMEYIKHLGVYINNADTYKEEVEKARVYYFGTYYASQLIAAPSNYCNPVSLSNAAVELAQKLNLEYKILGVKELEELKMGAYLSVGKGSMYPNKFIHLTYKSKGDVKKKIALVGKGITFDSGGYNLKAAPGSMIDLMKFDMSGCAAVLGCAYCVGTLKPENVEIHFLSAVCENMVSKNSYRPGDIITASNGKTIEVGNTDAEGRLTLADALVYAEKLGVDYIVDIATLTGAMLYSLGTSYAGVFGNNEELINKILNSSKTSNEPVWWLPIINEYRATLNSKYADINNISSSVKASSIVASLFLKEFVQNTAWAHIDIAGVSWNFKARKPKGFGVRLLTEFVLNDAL
# [15] = biological target: Arf-GAP with SH3 domain, ANK repeat and PH domain-containing protein 1 (Homo sapiens, UniProt Q9ULH1); format: functional;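 note: biochemical fluorescence polarization dose–response screen measuring inhibition of ASAP1; ASAP1 GAP domain stimulating GTP hydrolysis by truncated human ARF1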
# [16] = test system: INS1; experiment: beta cell apoptosis inhibitors, cytokine rescue, dose response, luminescence, retest (AID 449756); format: functional, cell-based; settings: Rattus norvegicus;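 note: cell death triggered by IL-1 beta plus TNF-alpha plus IFN-gamma mixture; protective hits raise ATP signal compared with cytokine alone wells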
# [17] = HepG2 cell cytotoxicity, dose response, cytotoxicity control for Shn3 inhibitor project, CellTiter-Glo, cherry-picked (AID 624134); format: functional, cell-based
# [18] = biological target: Disintegrin and metalloproteinase domain-containing protein 17 (Homo sapiens, UniProt P78536); experiment: ADAM17 protease inhibitors, dose response, counter-screen for ADAM10 exosite inhibitor project, biochemical, quenched FRET substrate (AID 743253)
# [19] = ADAM10 inhibitors, peptide cleavage, dose response, biochemical, QFRET (AID 743254);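 note: ADAM10 enzyme with the DM2 quenched FRET peptide as substrate; EDANS fluorescence gain as the protease cuts the substrate; inhibitor potency against ADAM10 proteolytic activity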
# [20] = inhibitors of PGC1a acetylation in cells, dose response, cell-based, cherry-picked samples (AID 720514); format: functional;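 note: potency may reflect raised or lowered acetylation signal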
# [21] = control 3'UTR Renilla luciferase suppression, dose response, counter-screen for Shn3 inhibitor project, cell-based, Clone20-Shn3RL, cherry-picked (AID 624133); format: functional
# [22] = Counterscreen for activators of the function of SWI/SNF related, matrix associated, actin dependent regulator of chromatin, subfamily a, member 2 (SMARCA2, BRM): Luminescence-based cell-based high throughput dose response assay to identify non-selective compounds using the VP16 reporter assay.; format: functional
# [23] = biological target: T4, DNA repair protein RAD52 homolog (Homo sapiens, UniProt P43351); format: functional, biochemical
# T4 sequence (P43351 whole entry): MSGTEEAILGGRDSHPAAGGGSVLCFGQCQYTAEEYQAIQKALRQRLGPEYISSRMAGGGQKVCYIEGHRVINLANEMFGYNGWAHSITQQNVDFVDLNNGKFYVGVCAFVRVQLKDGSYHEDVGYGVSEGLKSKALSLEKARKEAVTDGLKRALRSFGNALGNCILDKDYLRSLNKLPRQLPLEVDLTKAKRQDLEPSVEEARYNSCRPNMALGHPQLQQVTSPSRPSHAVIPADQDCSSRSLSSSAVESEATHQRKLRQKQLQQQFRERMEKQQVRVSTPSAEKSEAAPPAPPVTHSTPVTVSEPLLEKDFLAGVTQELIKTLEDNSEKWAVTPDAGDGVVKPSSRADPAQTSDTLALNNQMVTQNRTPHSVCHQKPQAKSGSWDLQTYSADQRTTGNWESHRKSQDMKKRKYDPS
# [24] = biological target: SWI/SNF-related matrix-associated actin-dependent regulator of chromatin subfamily A member 2 (Homo sapiens, UniProt P51531); experiment: Luminescence-based cell-based high throughput dose response assay to identify activators of the function of SWI/SNF related, matrix associated, actin dependent regulator of chromatin, subfamily a, member 2 (SMARCA2, BRM).; format: functional
# [25] = cytotoxicity in HeLa cells, dose response, cytotoxicity control, cell-based, 24 h, dry powder, set 2 (AID 651774); format: functional
# [26] = biological target: T5, Aspartyl aminopeptidase (Plasmodium falciparum 3D7, UniProt Q8I2J3)
# T5 sequence (Q8I2J3 whole entry): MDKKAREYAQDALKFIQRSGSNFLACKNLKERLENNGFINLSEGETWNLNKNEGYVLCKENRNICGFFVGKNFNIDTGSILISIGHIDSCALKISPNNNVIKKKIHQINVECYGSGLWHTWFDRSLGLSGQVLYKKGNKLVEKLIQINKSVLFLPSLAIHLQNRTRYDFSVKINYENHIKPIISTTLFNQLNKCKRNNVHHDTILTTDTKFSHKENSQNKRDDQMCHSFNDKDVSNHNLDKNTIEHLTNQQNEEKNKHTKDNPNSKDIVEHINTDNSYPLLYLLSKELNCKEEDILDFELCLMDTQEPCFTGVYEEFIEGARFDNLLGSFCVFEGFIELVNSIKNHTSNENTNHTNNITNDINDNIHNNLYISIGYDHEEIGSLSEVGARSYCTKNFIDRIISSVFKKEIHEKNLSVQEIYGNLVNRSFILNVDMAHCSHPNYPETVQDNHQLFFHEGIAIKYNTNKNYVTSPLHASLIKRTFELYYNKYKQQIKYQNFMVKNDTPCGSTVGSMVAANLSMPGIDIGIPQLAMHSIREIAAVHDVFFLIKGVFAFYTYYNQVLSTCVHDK
# [27] = biological target: Procathepsin L (Homo sapiens, UniProt P07711)
# Sequence of Procathepsin L (P07711 whole entry): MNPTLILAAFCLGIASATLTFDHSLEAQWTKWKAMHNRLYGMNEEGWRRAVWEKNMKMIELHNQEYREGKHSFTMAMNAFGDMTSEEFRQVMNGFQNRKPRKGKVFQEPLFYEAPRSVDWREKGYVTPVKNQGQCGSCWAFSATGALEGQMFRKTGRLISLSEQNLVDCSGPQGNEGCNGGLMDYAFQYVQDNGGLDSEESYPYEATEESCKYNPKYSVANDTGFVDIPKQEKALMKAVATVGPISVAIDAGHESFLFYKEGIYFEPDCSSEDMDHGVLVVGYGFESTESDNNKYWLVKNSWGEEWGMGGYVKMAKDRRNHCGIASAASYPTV
# Sequence of Melanocortin receptor 4 (P32245 whole entry): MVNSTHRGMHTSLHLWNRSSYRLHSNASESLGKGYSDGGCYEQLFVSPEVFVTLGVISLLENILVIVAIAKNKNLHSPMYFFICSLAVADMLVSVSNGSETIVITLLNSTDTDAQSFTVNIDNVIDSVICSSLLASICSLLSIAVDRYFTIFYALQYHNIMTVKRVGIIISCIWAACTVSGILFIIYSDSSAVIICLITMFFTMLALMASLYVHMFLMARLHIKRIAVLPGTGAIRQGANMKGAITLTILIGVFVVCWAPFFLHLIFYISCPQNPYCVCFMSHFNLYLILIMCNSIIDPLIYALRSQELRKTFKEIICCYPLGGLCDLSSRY
# Sequence of 5-hydroxytryptamine receptor 2A (P35363 whole entry): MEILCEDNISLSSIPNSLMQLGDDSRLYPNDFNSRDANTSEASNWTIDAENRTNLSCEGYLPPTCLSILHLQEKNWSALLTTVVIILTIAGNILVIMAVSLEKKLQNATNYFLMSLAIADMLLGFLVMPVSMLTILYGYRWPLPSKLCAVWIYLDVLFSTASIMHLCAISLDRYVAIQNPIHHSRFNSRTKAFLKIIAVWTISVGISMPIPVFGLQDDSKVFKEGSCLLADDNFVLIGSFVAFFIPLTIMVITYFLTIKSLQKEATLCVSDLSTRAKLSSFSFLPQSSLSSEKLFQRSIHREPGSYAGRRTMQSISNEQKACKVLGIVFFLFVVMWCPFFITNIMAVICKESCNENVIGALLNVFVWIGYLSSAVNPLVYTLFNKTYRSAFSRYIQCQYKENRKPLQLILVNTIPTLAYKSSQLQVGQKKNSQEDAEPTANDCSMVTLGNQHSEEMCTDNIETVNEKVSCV
# Sequence of Disintegrin and metalloproteinase domain-containing protein 17 (P78536 whole entry, the tested form may be a part): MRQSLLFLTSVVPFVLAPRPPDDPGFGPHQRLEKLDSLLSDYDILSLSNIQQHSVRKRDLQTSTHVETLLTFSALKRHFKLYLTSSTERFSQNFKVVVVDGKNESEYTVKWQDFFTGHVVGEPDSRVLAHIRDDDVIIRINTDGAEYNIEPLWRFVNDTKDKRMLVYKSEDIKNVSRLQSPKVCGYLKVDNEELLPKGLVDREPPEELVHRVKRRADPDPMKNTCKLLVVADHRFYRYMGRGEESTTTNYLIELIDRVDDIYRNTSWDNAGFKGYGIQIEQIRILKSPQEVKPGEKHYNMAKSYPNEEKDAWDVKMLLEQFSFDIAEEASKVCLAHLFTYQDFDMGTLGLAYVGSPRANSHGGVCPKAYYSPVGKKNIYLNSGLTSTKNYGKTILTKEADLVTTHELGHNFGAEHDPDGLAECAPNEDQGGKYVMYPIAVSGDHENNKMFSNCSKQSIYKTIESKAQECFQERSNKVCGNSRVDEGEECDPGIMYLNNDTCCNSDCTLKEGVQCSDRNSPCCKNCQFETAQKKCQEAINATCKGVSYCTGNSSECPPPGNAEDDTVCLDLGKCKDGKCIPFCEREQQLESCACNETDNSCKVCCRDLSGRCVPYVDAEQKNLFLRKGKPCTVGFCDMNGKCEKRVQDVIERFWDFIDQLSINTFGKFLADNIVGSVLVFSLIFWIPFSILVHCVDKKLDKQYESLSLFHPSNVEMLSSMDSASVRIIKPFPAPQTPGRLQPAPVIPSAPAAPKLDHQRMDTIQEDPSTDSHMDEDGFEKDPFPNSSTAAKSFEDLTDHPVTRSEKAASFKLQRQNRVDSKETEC
# Sequence of Arf-GAP with SH3 domain, ANK repeat and PH domain-containing protein 1 (Q9ULH1 whole entry, the tested form may be a part): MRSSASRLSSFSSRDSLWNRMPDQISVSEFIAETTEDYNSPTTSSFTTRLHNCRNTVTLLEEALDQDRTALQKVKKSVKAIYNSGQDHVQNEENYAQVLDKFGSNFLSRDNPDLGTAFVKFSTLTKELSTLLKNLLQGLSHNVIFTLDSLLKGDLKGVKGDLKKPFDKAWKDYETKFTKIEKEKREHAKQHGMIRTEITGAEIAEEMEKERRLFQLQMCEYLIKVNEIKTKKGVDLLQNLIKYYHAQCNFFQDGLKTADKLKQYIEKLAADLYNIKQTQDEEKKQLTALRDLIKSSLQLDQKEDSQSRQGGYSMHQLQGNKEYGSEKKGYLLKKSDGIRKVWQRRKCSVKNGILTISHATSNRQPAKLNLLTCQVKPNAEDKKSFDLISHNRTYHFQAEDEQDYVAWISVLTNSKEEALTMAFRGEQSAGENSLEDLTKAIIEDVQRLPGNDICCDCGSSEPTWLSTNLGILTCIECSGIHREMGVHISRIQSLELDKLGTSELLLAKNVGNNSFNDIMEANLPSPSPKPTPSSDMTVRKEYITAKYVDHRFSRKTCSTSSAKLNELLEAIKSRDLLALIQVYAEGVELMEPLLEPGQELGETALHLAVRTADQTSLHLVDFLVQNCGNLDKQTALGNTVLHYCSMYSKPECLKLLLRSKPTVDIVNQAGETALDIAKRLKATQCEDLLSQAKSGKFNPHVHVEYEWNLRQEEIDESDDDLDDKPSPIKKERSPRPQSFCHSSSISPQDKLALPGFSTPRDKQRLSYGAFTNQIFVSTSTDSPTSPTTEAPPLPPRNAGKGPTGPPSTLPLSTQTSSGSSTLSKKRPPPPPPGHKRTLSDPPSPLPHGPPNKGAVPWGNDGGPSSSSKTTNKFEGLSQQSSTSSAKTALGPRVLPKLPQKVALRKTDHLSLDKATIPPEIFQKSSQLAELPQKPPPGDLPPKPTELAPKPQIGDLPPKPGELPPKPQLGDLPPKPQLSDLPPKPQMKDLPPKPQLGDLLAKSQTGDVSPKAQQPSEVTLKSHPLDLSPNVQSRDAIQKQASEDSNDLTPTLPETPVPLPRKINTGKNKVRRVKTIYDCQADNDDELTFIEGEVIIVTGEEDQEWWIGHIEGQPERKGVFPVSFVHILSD
# Sequence of Mu-type opioid receptor (P35372 whole entry): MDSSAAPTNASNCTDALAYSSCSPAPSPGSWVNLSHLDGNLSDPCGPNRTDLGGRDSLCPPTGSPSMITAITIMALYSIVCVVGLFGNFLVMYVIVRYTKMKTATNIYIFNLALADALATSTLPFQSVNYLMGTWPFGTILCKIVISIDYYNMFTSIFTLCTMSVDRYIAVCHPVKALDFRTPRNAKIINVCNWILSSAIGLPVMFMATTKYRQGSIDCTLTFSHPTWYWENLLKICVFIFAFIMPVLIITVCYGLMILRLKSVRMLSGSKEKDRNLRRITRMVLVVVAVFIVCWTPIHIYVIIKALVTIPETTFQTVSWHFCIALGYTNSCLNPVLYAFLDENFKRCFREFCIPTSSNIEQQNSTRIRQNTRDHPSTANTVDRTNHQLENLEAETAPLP
smiles,measurement,setting,value
CCOC(=O)C1=CCN(Cc2ccccc2)CC1,EC50,[1],92.5 µM (inactive)
same,EC50,[2],5.35 µM (active)
Cc1cc(NC(=O)c2cncc(Br)c2)ccc1NC(=O)c1cc2ccccc2o1,EC50,[3],> 55.9 µM (inactive)
same,AC50,[4],15.4 µM (active)
same,EC50,[5],> 54.7 µM (inactive)
same,AC50,[6],26.2 µM (active)
same,EC50,[7],> 54.7 µM (inactive)
same,IC50,[8],5.63 µM (active)
same,EC50,[9],> 89.2 µM (inactive)
same,AC50,[10],10.4 µM (active)
Cc1nc2scc(C)n2c(=O)c1S(=O)(=O)Nc1ccc(N2CCOCC2)c(Cl)c1,AC50,[11],2.04 µM (active)
same,AC50,[12],1.67 µM (active)
same,AC50,[13],38.3 µM (active)
Cc1ccc(NC(=O)CSc2ncccc2C(=O)Oc2cccc([N+](=O)[O-])c2)cc1Cl,IC50,[14],32 µM (active)
same,IC50,[15],45.7 µM (inactive)
COc1ccc(OC)c(NC(=O)CN(Cc2ccc(F)cc2)C2CCCCC2)c1,AC50,[16],4.33 µM (active)
same,AC50,[11],6.54 µM (active)
same,AC50,[12],4.99 µM (active)
same,AC50,[17],50.8 µM (active)
same,AC50,[13],34.6 µM (active)
C=CCC[C@@H](Cc1ccc(F)cc1)C(=O)O[C@H](CNC(=O)[C@H](CC=C)CC(=O)N(CCO)Cc1ccccc1)c1ccccc1,IC50,[18],> 69.5 µM (inactive)
same,IC50,[19],12.2 µM (inactive)
COc1cc(NC(=O)NCc2ccco2)ccc1-c1ccc(NC(=O)NCc2ccco2)cc1OC,AC50,[20],14 µM (active)
same,AC50,[4],> 52 µM (inactive)
same,AC50,[12],3.19 µM (active)
same,AC50,[17],> 70 µM (inactive)
same,AC50,[21],10.3 µM (active)
CN(C)CCNC(=O)c1cccc(-c2cc(NC=O)c3ncc(-c4cccc(C(F)(F)F)c4)n3c2)c1,EC50,[22],> 91.2 µM (inactive)
same,AC50,[23],4.34 µM (active)
same,EC50,[24],> 91.2 µM (inactive)
same,EC50,[9],> 89.2 µM (inactive)
CCc1nc2ccc(C(=O)Nc3ccc(OC)c(OC)c3)cn2c1N(CC)Cc1cccc(Br)c1,IC50,[18],> 69.5 µM (inactive)
same,IC50,[19],> 69.5 µM (inactive)
O=C(Cc1ccc(Cl)cc1)NC1CCCC1,AC50,[25],> 70 µM (inactive)
CNC[C@H](O)c1ccc(O)c(O)c1 [EPINEPHRINE BITARTRATE],IC50,[26],3.01 µM (active)
same,IC50,[27],> 59.6 µM (not active)
same,EC50,[2],0.586 µM (active)
